Reference: patent publication US20260216343A1, “CONJUGATE, MICELLE AND ANTICANCER AGENT” (TOHOKU UNIVERSITY, priority 2023, published 2026)
Where a name gives a salt, the structure may show the parent alone.

Key:
[1] = system: Keap1 KO-mCherry cells (Hepa1); assay: Cell fluorescence analysis (relative fluorescence as cell survival) after HF treatment; format: cell-based; conditions: HF at various doses up to 50 nM, 48 hours
Experimental: (§1) WT-GFP and Keap1-mCherry Hepa1 cells were prepared in the same manner as in Mol Cell Biol., 2020 Oct 26, 40(22). The cells were maintained in Dulbecco's modified Eagle's medium (DMEM) containing 10% (v/v) fetal bovine serum and antibiotics (penicillin-streptomycin) at 37° C. and 5% CO2.
(§2) For cell fluorescence analysis, 4×10^4 WT-GFP cells and 2×10^4 Keap1-mCherry Hepa1 cells were cultured separately on day −1 in a black 96-well plate (Corning; number 3904). On day 0, HF or saline was introduced at various concentrations, and then the plate was returned to an incubator at 37° C. until day 2. The fluorescence intensities of the cells were measured using a PHERAstar FS microplate reader (BMG Labtech, Ortenberg, Germany).
(§3) HF has been reported to suppress Nrf2 accumulation in cells (FIG. 1A). To examine the tumor suppressive role of HF in Nrf2-activated tumor cells, enhanced green fluorescent protein (EGFP)-expressing wild type (WT) Hepa1 cells (hereinafter also referred to as “WT-GFP cells”) and mCherry-expressing Keap1 knockout cells (hereinafter also referred to as “Keap1 KO-mCherry cells”) were treated with HF. Both isogenic cell lines used were the same as those in Mol Cell Biol., 2020 Oct 26, 40(22). […] It has been shown in Mol Cell Biol., 2020 Oct 26, 40(22) that there is a correlation between the relative fluorescence intensity and the cell survival rate.

WT-GFP cells (Hepa1) = assay: as above; format: cell-based; conditions: HF at various doses up to 50 nM, 48 hours
Experimental: as §1, §2, §3

[2] = system: Nrf2-activated lung adenocarcinoma; assay: Tumor suppression in Kras-driven Nrf2-activated lung adenocarcinoma mouse model; format: in vivo, Keap1^FB/FB:Kras^G12D mice
Text: (§4) Keap1^FB/FB:Kras^G12D mice were produced in the same manner as in Cancer Res, 15 Aug. 2020, 80(16):3331-3344, Genes & Dev., 2001, 15:3243-3248, and Am J Respir Cell Mol Biol., 2010 May, 42(5):524-36. All the mice used in this test had the C57BL/6J background. Saline, HF, and HFm were intravenously injected to the mice. All the in vivo experiments were approved by the animal welfare committee of Tohoku University.
Adeno-Cre was purchased from VectorBioLabs (Ad-Cre-GFP, catalog no. 1700). Adeno-Cre was administered in the same manner as in Nat Protoc 4, 2009, 1064-1072. Briefly, 1×10^7 plaque-forming units of Adeno-Cre were mixed with Eagle's minimum essential medium (MEM) and calcium chloride. The mixture was incubated on ice for 20 minutes and used for intranasal dropping within one hour of the preparation. Droplets containing the Adeno-Cre mixture were administered to the nostrils of anesthetized mice (eight to 12 weeks old) using a pipette. The mice were allowed to inhale the droplets gradually.
The lung tissues were fixed in 10% formalin (Mildform 10N; FUJIFILM Wako Pure Chemical Corporation, Osaka) and embedded in paraffin. The slices were stained with hematoxylin-eosin (HE) or elastica-Masson (EM). To measure the tumor areas, five slices were cut out with a certain distance and stained with HE. The tumor areas were measured using ImageJ software (NIH).
To examine whether administration of HF or HFm could suppress the progress of Nrf2-activated non-small-cell lung cancer (NSCLC), a Kras-driven lung adenocarcinoma mouse model was used (Genes&Dev., 2001, 15:3243-3248). A mouse having a loxP-Stop-loxP Kras^G12D-knocked-in allele (hereinafter also referred to as “Kras mouse”) was mated with a mouse having a Keap1-flox allele in the loxP site including the third and fourth exons (hereinafter also referred to as “Keap1^FB”) (Am J Respir Cell Mol Biol., 2010 May, 42(5):524-36), and thus a Keap1^FB/FB:Kras^G12D complex mouse was obtained (Cancer Res, 15 Aug. 2020, 80(16):3331-3344). Through Cre recombination by intranasal infection with Adeno-Cre, activation of Kras cancer gene and deletion of Keap1 exons were achieved simultaneously. By this operation, Nrf2-activated lung adenocarcinoma was successfully imitated in mice.
Then, after the tumor was grown for 17 weeks, administration of HF or HFm was started. HF or HFm was intravenously administered every two days, and injection was conducted four times in total. Because the MTD of HF was determined to be 0.75 mg/kg bw (FIG. 2), it was decided to use 0.75 mg/kg bw of HF or HFm in this cancer-bearing mouse experiment. The mice were sacrificed on the eighth day. Various characteristics of the lung tumors were analyzed, and the effectiveness of HF and HFm changing the tumor burden was evaluated (FIG. 4A).
Next, by EM staining of the lung slices, the influence of HF and HFm on the malignancy of tumors was examined (FIG. 4C, bottom). Using images of the slices, the lung lesions were evaluated according to the guidelines of the system of the 2015 World Health Organization Classification of Lung Tumors (Front Oncol., 2017 Aug 28, 7: 193). Briefly, lung tumors include two types, namely a lepidic lesion and a papillary lesion. A lepidic lesion indicates in situ proliferation of cells along the alveolar walls (arrows with “x”), while a papillary lesion indicates proliferation away from the alveolar walls (arrows with “y”). A tumor with many papillary lesions is called Grade II, and it is known that the prognoses of a patient having many papillary tumors is poor compared to that of a patient having many lepidic tumors (Grade I). When the main component of the tumor is composed of a solid sheet and when no recognizable lepidic or papillary pattern is found, the tumor is classified as a solid tumor (Grade III).
(§5) After KRAS-driven lung adenocarcinoma was grown for 17 weeks, the mice were treated with saline, HF (0.25 mg/kg), or HFm (0.25 mg/kg) every two days four times in total (FIG. 7A).

[3] = system: Nrf2 protein in Keap1 KO-mCherry cells; assay: Immunoblotting of Nrf2 protein after HF treatment; format: cell-based; conditions: 50 nM HF, 0-18 hours, whole cell lysates
Experimental: (§6) For analyzing cultured cells, 1×10^6 WT-GFP and Keap1-mCherry Hepa1 cells were separately seeded on day −1 and treated with 50 nM HF on the next day (day 0). Whole cell lysates were prepared by lysing the cells with SDS buffer (0.25 M Tris-HCl (pH 6.8), 8% (w/v) SDS, and 20% glycerol) and collected 0, three, six, 12, and 18 hours after the HF treatment. An anti-Nrf2 antibody (Cell Signaling Technology, #12721, 1:500 dilution) and an anti-α-tubulin antibody (Sigma, T9026, 1:1000 dilution) were used.
(§7) To examine whether the selective decrease in the Keap1 KO-mCherry cells was caused by suppression of Nrf2 accumulation, Nrf2 protein was analyzed by immunoblotting at various points in time after isogenic Hepa1 cells were exposed to HF. […] The above experiment was repeated, and densitometry measurement of immunoblotting bands was conducted (FIG. 1F).

[4] = system: Nrf2 protein in WT-GFP cells; assay: Immunoblotting of Nrf2 protein after HF treatment; format: cell-based; conditions: 50 nM HF, 0-18 hours, whole cell lysates
Experimental: as §6, §7

[5] = Systemic side effect markers in cancer-bearing mice; format: in vivo, Keap1^FB/FB:Kras^G12D mice
Text: (§8) Monocytes were isolated from the bone marrow, the spleen, and the thymus using Ficoll-Paque PREMIUM 1.084 (Cytiva 17-5446-02). The monocytes were stained with allophycocyanin-eFluor 780 conjugate anti-c-Kit (Invitrogen; Clone 2B8), Brilliant Violet 421 conjugate anti-B220 (Biolegend; Clone RA2-6B2), phycoerythrin conjugate anti-F4/80 (Biolegend; Clone BM8), fluorescein isothiocyanate conjugate anti-Ly6G (Biolegend; Clone 1A8), Brilliant Violet 421 conjugate anti-CD11b (Biolegend; Clone M1/70), fluorescein isothiocyanate conjugate anti-CD71 (eBiosciences; CloneR17217), phycoerythrin conjugate anti-Ter119 (eBiosciences; Clone TER-119), PE-Cyanine7 conjugate anti-CD4 (Invitrogen; CloneGK1.5), and allophycocyanin conjugate anti-CD8 (Biolegend; Clone S3-6.7). The dead cells were removed using propidium iodide staining. The analysis was made using FACSVerse (BD Biosciences). The data were analyzed using FlowJo software (BD Biosciences).
Because HF is slowly and continuously released from HFm through encapsulation of HF in polymer micelles, it was supposed that HFm may act as a far safer drug than HF. Thus, because the MTD of HF was 0.75 mg/kg bw, various side effect markers were examined in cancer-bearing model mice treated with 0.75 mg/kg bw of HFm and compared with those of the mice treated with the same amount of HF.
as §5

[6] = Dose-dependent in vivo toxicity / maximum tolerated dose of HF; set-up: species or system WT C57BL/6 mice
Text: as §4, §8
Preclinical animal testing was conducted to determine the maximum tolerated dose (hereinafter also referred to as MTD) of HF. […] Thus, in this test, HF was administered to WT C57BL/6 mice (eight to 12 weeks old, both females and males) incrementally in the range of 0.25 mg/kg to 1 mg/kg (FIG. 2A). HF was administered to the tail veins every two days four times in total.

[7] = 0.75 mg/kg bw iv four times, vs. saline
[8] = 0.75 mg/kg bw iv four times, vs. HFm or saline
[9] = 0.25 to 0.75 mg/kg iv four times

**Q.** What does the source list for `O=C(CC1NCCCC1O)Cn1cnc2cc(Br)c(Cl)cc2c1=O` (stereo not shown) [HF, Halofuginone hydrobromide]?
**A.** count of Keap1 KO-mCherry cells (relative fluorescence intensity) [1]: decreased significantly in a concentration-dependent manner; count of WT-GFP cells (relative fluorescence intensity) (WT-GFP cells (Hepa1)): did not decrease substantially; number of papillary lesions vs. saline ([2]; 0.25 mg/kg bw iv four times): far smaller; number of solid tumors vs. saline ([2]; 0.25 mg/kg bw iv four times): smaller with significance; lung weight vs. saline-treated mice ([2]; 0.75 mg/kg bw iv every two days four times, day 8): lower with significance; solid adenocarcinomas of Grade III ([2]; 0.75 mg/kg bw iv four times): disappeared completely; number of lepidic (Grade I) tumors [2, 7]: equivalent numbers; number of papillary (Grade II) tumors [2, 7]: equivalent numbers; frequency of the papillary tumors ([2]; 0.75 mg/kg bw iv four times, vs. saline control): lower; tumor area (HE-stained lung sections) ([2]; 0.75 mg/kg bw iv four times, saline-treated group 21%): 10%; lung weight decrease (saline vs. treatment) ([2]; high dose (0.75 mg/kg)): 37.6%; tumor area decrease (saline vs. treatment) ([2]; high dose (0.75 mg/kg)): 9.95%; lung weight decrease (saline vs. treatment) ([2]; low dose (0.25 mg/kg)): 25.7%; tumor area decrease (saline vs. treatment) ([2]; low dose (0.25 mg/kg)): 7.42%; disappearance of solid tumors ([2]; low-dose therapy (0.25 mg/kg bw)): did not disappear completely; Nrf2 protein level [3]: depleted rapidly; Nrf2 protein level [4]: not detected at all the points in time; erythrocyte count in peripheral blood ([5]; 0.25 mg/kg bw iv four times): did not affect; leukocyte count in peripheral blood ([5]; 0.25 mg/kg bw iv four times): decreased the leukocyte count with significance; body weight changes ([5]; 0.25 mg/kg bw iv four times, vs. other groups): equivalent; atrophy of the thymus ([5]; 0.75 mg/kg bw iv four times): remarkable; erythroblasts (Ter119+CD71+) of the spleen ([5]; 0.75 mg/kg bw iv four times): decreased with significance; erythrocytes in peripheral blood ([5]; 0.75 mg/kg bw iv four times): decreased; hematocrit levels ([5]; 0.75 mg/kg bw iv four times): decreased; leukocyte count in peripheral blood ([5]; 0.75 mg/kg bw iv four times): significant decrease; spleen cell count ([5]; 0.75 mg/kg bw iv four times): decreased with significance; spleen weight ([5]; 0.75 mg/kg bw iv four times): decreased with significance; thymus CD4 single-positive cells (CD4+CD8-) count ([5]; 0.75 mg/kg bw iv four times): decreased; thymus double-negative cells (CD4-CD8-) count ([5]; 0.75 mg/kg bw iv four times): decreased; thymus double-positive cells (CD4+CD8+) count ([5]; 0.75 mg/kg bw iv four times): decreased; thymus total cell count ([5]; 0.75 mg/kg bw iv four times): decreased significantly; total cell count of the bone marrow ([5]; 0.75 mg/kg bw iv four times): decreased significantly; bone marrow B cells (B220+) count [5, 8]: decreased significantly; bone marrow macrophages (CD11b+F4/80+) count [5, 8]: decreased significantly; bone marrow neutrophils (CD11b+Ly6G+) count [5, 8]: decreased significantly; bone marrow precursor cells (c-Kit+) count [5, 8]: decreased significantly; thymus CD8 single-positive cells (CD4-CD8+) ([5]; 0.75 mg/kg bw iv four times, vs. saline or HFm): tendency towards a lower frequency; bone marrow B cell count (B220+) ([6]; 0.75 mg/kg iv four times): decreased; erythroblasts (Ter119+CD71+) of the spleen ([6]; 0.75 mg/kg iv four times): most of the erythroblasts disappeared; acute condition of mice ([6]; 1 mg/kg iv every two days): showed a sign of acute disorder after two injections and were moribund; body weight change ([6]; 1 mg/kg iv, day 1 vs. day 4): −13.4%; mortality ([6]; 1 mg/kg iv, eight mice, after second administration): one mouse in the administration group died; bone marrow precursor cell count (c-Kit+) [6, 9]: did not change largely; bone marrow total cell count [6, 9]: did not change largely; erythroblasts (Ter119+CD71+) of the spleen [6, 9]: decreased largely in a dose-dependent manner; erythrocyte counts in peripheral blood [6, 9]: equivalent in all the groups; leukocyte count in peripheral blood [6, 9]: decreased in a dose-dependent manner; platelet counts in peripheral blood [6, 9]: equivalent in all the groups; thymus weight [6, 9]: decreased with significance in a dose-dependent manner; whole cells of the spleen [6, 9]: decreased largely in a dose-dependent manner; thymus CD4 single-positive (CD4+CD8-) cells ([6]; HF iv four times): decreased; thymus CD8 single-positive (CD4-CD8+) cells ([6]; HF iv four times): tendency towards a decrease; total cells of the thymus ([6]; HF iv four times): decreased; spleen weight ([6]; increasing HF dose, iv four times): decreased stepwisely; maximum tolerated dose (MTD) ([6]; iv every two days four times): 0.75 mg/kg bw
